{"source": "patent US7902373B2", "about": "(Pfizer Inc, priority 2006, dated 2011)"}
{"biological_target": "human recombinant H-PGDS (Homo sapiens, UniProt O60760)", "sequence (O60760 whole entry)": "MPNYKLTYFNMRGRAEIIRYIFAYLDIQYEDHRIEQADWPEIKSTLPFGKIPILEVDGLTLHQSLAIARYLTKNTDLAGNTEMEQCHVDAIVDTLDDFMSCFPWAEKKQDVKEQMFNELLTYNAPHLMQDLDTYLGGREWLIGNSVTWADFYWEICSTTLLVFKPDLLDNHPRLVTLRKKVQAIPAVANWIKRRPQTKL", "experiment": "Fluorescence intensity h-PGDS TBA enzyme assay", "assay_type": "biochemical", "settings": "Examples up to 622 (and 3a, 3b)", "units": {"IC50": "nM"}}
{"smiles": "Cc1ccc(CN2CCC(NC(=O)c3ccc(-c4cccc(F)c4)nc3)CC2)c(F)c1", "note": "[Example 503, N-[1-(2-Fluoro-4-methylbenzyl)piperidin-4-yl]-6-(3-fluorophenyl)nicotinamide]", "IC50": 2.7}
{"smiles": "Cc1cc(C)n2nc(CN3CCC(NC(=O)c4ccc(-c5cccc(F)c5)nc4)CC3)nc2n1", "note": "[Example 504, N-{1-[(5,7-Dimethyl[1,2,4]triazolo[1,5-a]pyrimidin-2-yl)methyl]piperidin-4-yl}-6-(3-fluorophenyl)nicotinamide]", "IC50": 2.84}
{"smiles": "CC1(CN2CCC(NC(=O)c3ccc(-c4cccc(F)c4)nc3)CC2)CC1", "note": "[Example 505, 6-(3-Fluorophenyl)-N-{1-[(1-methylcyclopropyl)methyl]piperidin-4-yl}nicotinamide]", "IC50": 0.418}
{"smiles": "COc1cccc(-c2c(CN3CCC(NC(=O)c4ccc(-c5cccc(F)c5)nc4)CC3)cnn2C)c1", "note": "[Example 506, 6-(3-Fluorophenyl)-N-(1-{[5-(3-methoxyphenyl)-1-methyl-1H-pyrazol-4-yl]methyl}piperidin-4-yl)nicotinamide]", "IC50": 1.25}
{"smiles": "Cn1ncc(CN2CCC(NC(=O)c3ccc(-c4cccc(F)c4)nc3)CC2)c1-c1cccc(F)c1", "note": "[Example 507, 6-(3-Fluorophenyl)-N-(1-{[5-(3-fluorophenyl)-1-methyl-1H-pyrazol-4-yl]methyl}piperidin-4-yl)nicotinamide]", "IC50": 0.551}
{"smiles": "COc1ccccc1-c1c(CN2CCC(NC(=O)c3ccc(-c4cccc(F)c4)nc3)CC2)cnn1C", "note": "[Example 508, 6-(3-Fluorophenyl)-N-(1-{[5-(2-methoxyphenyl)-1-methyl-1H-pyrazol-4-yl]methyl}piperidin-4-yl)nicotinamide]", "IC50": 0.551}
{"smiles": "Cc1ccccc1-c1c(CN2CCC(NC(=O)c3ccc(-c4cccc(F)c4)nc3)CC2)cnn1C", "note": "[Example 509, 6-(3-Fluorophenyl)-N-(1-{[1-methyl-5-(2-methylphenyl)-1H-pyrazol-4-yl]methyl}piperidin-4-yl)nicotinamide]", "IC50": 0.665}
{"smiles": "Cc1ccc(-c2c(CN3CCC(NC(=O)c4ccc(-c5cccc(F)c5)nc4)CC3)cnn2C)cc1", "note": "[Example 510, 6-(3-Fluorophenyl)-N-(1-{[1-methyl-5-(4-methylphenyl)-1H-pyrazol-4-yl]methyl}piperidin-4-yl)nicotinamide]", "IC50": 2.74}
{"smiles": "CC1(CN2CCC(NC(=O)c3ccc(-c4cccc(F)c4)nc3)CC2)CCC1", "note": "[Example 511, 6-(3-Fluorophenyl)-N-{1-[(1-methylcyclobutyl)methyl]piperidin-4-yl}nicotinamide]", "IC50": 1.09}
{"smiles": "O=C(NC1CCN(Cc2n[nH]c3ccc(Cl)cc23)CC1)c1ccc(-c2cccc(F)c2)nc1", "note": "[Example 512, N-{1-[(5-Chloro-1H-indazol-3-yl)methyl]piperidin-4-yl}-6-(3-fluorophenyl)nicotinamide]", "IC50": 0.391}
{"smiles": "O=C(NC1CCN(Cc2n[nH]c3ccccc23)CC1)c1ccc(-c2cccc(F)c2)nc1", "note": "[Example 513, 6-(3-Fluorophenyl)-N-[1-(1H-indazol-3-ylmethyl)piperidin-4-yl]nicotinamide]", "IC50": 0.363}
{"smiles": "O=C1COc2ncc(CN3CCC(NC(=O)c4ccc(-c5cccc(F)c5)nc4)CC3)cc2N1", "note": "[Example 514, 6-(3-Fluorophenyl)-N-{1-[(2-oxo-2,3-dihydro-1H-pyrido[2,3-b][1,4]oxazin-7-yl)methyl]piperidin-4-yl}nicotinamide]", "IC50": 0.348}
{"smiles": "COc1ccc(C)cc1CN1CCC(NC(=O)c2ccc(-c3cccc(F)c3)nc2)CC1", "note": "[Example 515, 6-(3-Fluorophenyl)-N-[1-(2-methoxy-5-methylbenzyl)piperidin-4-yl]nicotinamide]", "IC50": 1.1}
{"smiles": "CCCn1cc(CN2CCC(NC(=O)c3ccc(-c4cccc(F)c4)nc3)CC2)cn1", "note": "[Example 516, 6-(3-Fluorophenyl)-N-{1-[(1-propyl-1H-pyrazol-4-yl)methyl]piperidin-4-yl}nicotinamide]", "IC50": 2.2}
{"smiles": "CCCn1nccc1CN1CCC(NC(=O)c2ccc(-c3cccc(F)c3)nc2)CC1", "note": "[Example 517, 6-(3-Fluorophenyl)-N-{1-[(1-propyl-1H-pyrazol-5-yl)methyl]piperidin-4-yl}nicotinamide]", "IC50": 0.41}
